Literature values, collected in patent US10927398B2, “Compositions for CYP450 phenotyping using saliva samples” (Concordia University, Inc., priority 2015, dated 2021).
Where two headings read alike, the source gives them in different places.

Tests used:
[1] = cited from earlier work
plasma protein = settings: cited from earlier work
[2] = cited from earlier work; remark: listed apart in the source
[3] = Table of Exemplary Drugs, CYP3A4
[4] = Table of Exemplary Drugs, CYP2C19
[5] = Table of Exemplary Drugs, CYP1A2
[6] = Table of Exemplary Drugs, CYP2D6

Structure (SMILES)	ORAL BIOAVAILABILITY [1, 3]	PLASMA PROTEIN BINDING (plasma protein; [3])	HALF-LIFE [2, 3]	other results
O=C1CCc2cc(OCCCCc3nnnn3C3CCCCC3)ccc2N1 [Cilostazol (Pletal), Cilostazol]	87-100%	95-98% ^	11 to 13 h	
COc1cc(N)c(Cl)cc1C(=O)NC1CCN(CCCOc2ccc(F)cc2)CC1OC (stereo not shown) [Cisapride (Propulsid), Cisapride]	35-65%	98%	6 to 12 h	
CN(C)CCCC1(c2ccc(F)cc2)OCc2cc(C#N)ccc21 (stereo not shown) [Citalopram]				ORAL BIOAVAILABILITY [1, 4]: 80%; PLASMA PROTEIN BINDING (plasma protein; [4]): 80%; HALF-LIFE [2, 4]: 35 h
CC[C@H]1OC(=O)[C@H](C)[C@@H](O[C@H]2C[C@@](C)(OC)[C@@H](O)[C@H](C)O2)[C@H](C)[C@@H](O[C@@H]2O[C@H](C)C[C@H](N(C)C)[C@H]2O)[C@](C)(OC)C[C@@H](C)C(=O)[C@H](C)[C@@H](O)[C@]1(C)O [Clarithromycin (Biaxin), Clarithromycin]	55%	Low	4 h	
COC(=O)[C@H](c1ccccc1Cl)N1CCc2sccc2C1 [Clopidogrel]	>50%	94-98% ^	6 h	ORAL BIOAVAILABILITY [1, 4]: >50%; PLASMA PROTEIN BINDING (plasma protein; [4]): 98%
CN1CCN(C2=Nc3cc(Cl)ccc3Nc3ccccc32)CC1 [Clozapine]				ORAL BIOAVAILABILITY [1, 5]: 12-81%; PLASMA PROTEIN BINDING (plasma protein; [5]): 97%; HALF-LIFE [2, 5]: 4 to 66 h
COc1ccc2c3c1O[C@H]1[C@@H](O)C=C[C@H]4[C@@H](C2)N(C)CC[C@@]341 [Codeine]				ORAL BIOAVAILABILITY ([1]; in vivo, po): 90%; PLASMA PROTEIN BINDING (plasma protein; [6]): 7-25%^; HALF-LIFE ([2]; in vivo): 2.5 to 3 h
CN(C)CCC=C1c2ccccc2C=Cc2ccccc21 [Cyclobenzaprine]				ORAL BIOAVAILABILITY [1, 5]: 33-55%; PLASMA PROTEIN BINDING (plasma protein; [5]): 93%; HALF-LIFE [2, 5]: 8 to 37 h
CC(C)Nc1cccnc1N1CCN(C(=O)c2cc3cc(NS(C)(=O)=O)ccc3[nH]2)CC1 [Delavirdine (Rescriptor), Delavirdine]	85%	98%	5.8 h	
CCN[C@@H](C)Cc1cccc(C(F)(F)F)c1 [Dexfenfluramine]				ORAL BIOAVAILABILITY ([1]; in vivo, po): 68%; PLASMA PROTEIN BINDING (plasma protein; [6]): 36%; HALF-LIFE ([2]; in vivo): 17 to 20 h
CN1C[C@H](C(=O)N[C@]2(C)O[C@@]3(O)[C@@H]4CCCN4C(=O)[C@H](Cc4ccccc4)N3C2=O)C[C@@H]2c3cccc4[nH]cc(c34)C[C@H]21 [Dihydroergotamine]				ORAL BIOAVAILABILITY ([1]; in vivo, po): <32%; PLASMA PROTEIN BINDING (plasma protein; plasma): 93%; HALF-LIFE ([2]; in vivo): 9 to 10 h
COc1ccc([C@@H]2Sc3ccccc3N(CCN(C)C)C(=O)[C@@H]2OC(C)=O)cc1 [Diltiazem (Cardizem), Diltiazem]	>40%	70-80% ^	3 to 6 h	
CC(C)N(CCC(C(N)=O)(c1ccccc1)c1ccccn1)C(C)C (stereo not shown) [Disopyramide (Norpace), Disopyramide]	80%	50-65% ^	6.7 h	
COc1cccc2c1C(=O)c1c(O)c3c(c(O)c1C2=O)C[C@@](O)(C(=O)CO)C[C@@H]3O[C@H]1C[C@H](N)[C@H](O)[C@H](C)O1 [Doxorubicin (Adriamycin), Doxorubicin]	5%	74-76% ^	20 to 48 h	
CNCC[C@H](Oc1cccc2ccccc12)c1cccs1 [Duloxetine]				ORAL BIOAVAILABILITY [1, 6]: 30-80%; PLASMA PROTEIN BINDING (plasma protein; [6]): >90%; HALF-LIFE ([2]; in vivo): 12 h
C[C@]12C=CC(=O)N[C@@H]1CC[C@@H]1[C@@H]2CC[C@]2(C)[C@@H](C(=O)Nc3cc(C(F)(F)F)ccc3C(F)(F)F)CC[C@@H]12 [Dutasteride (Avodart), Dutasteride]	60%	99%	5 weeks	
CC(C)(C)c1ccc(C(=O)CCCN2CCC(OC(c3ccccc3)c3ccccc3)CC2)cc1 [Ebastine (Kestine), Ebastine]	“High”	98%	24.8 h	
O=C1Nc2ccc(Cl)cc2[C@@](C#CC2CC2)(C(F)(F)F)O1 [Efavir enz (Sustiva), Efavir enz]	40-45%	99.5-99.75% ^	40 to 55 h	
COc1ccc(C(=O)Nc2ccccc2CCC2CCCCN2C)cc1 (stereo not shown) [Encainide]				ORAL BIOAVAILABILITY [1, 6]: 25-90%; PLASMA PROTEIN BINDING (plasma protein; [6]): 70.5-78% ^; HALF-LIFE [2, 6]: 1.5 to 11.3 h
C#Cc1cccc(Nc2ncnc3cc(OCCOC)c(OCCOC)cc23)c1 [Erlotinib]	60%	93%		ORAL BIOAVAILABILITY [1, 5]: 60-100%; PLASMA PROTEIN BINDING (plasma protein; [5]): 93%; HALF-LIFE [2, 5]: 36.2 h
CC[C@H]1OC(=O)[C@H](C)[C@@H](O[C@H]2C[C@@](C)(OC)[C@@H](O)[C@H](C)O2)[C@H](C)[C@@H](O[C@@H]2O[C@H](C)C[C@H](N(C)C)[C@H]2O)[C@](C)(O)C[C@@H](C)C(=O)[C@H](C)[C@@H](O)[C@]1(C)O [Erythromycin]	30-65%	90%	1 to 1.5 h	
